In brackets after ≈: the same amount, converted by molar mass. Where only a bound is given, the exact number is not on record here.

A word on the kinetic solubility: it is the concentration staying in solution when a stock, usually in DMSO, is diluted into the medium.

For the data set the following is noted: buffer; pH 7.4; 200.0 µM.
With `CCOC(=O)c1sc(S(C)(=O)=O)c2c1CCc1conc1-2`, the kinetic solubility was determined as 4 µg/mL (≈ 12.2 µM).

As to `O=C(c1cccc(F)c1)N1CCCC(C(=O)N2CCCCC2)C1` (configuration not stated), the kinetic solubility was over 47.8 µg/mL.

`COc1ccccc1Oc1ccc2c(c1)C(=O)N(CC1CCCO1)C2=O` (configuration not stated): the solubility (kinetic) came to 40.3 µg/mL (≈ 114 µM).

As for `CCN(C(=O)c1cn(C)c(=O)c2ccccc12)c1ccccc1F`, the solubility (kinetic) is over 48.7 µg/mL.

As to `CC#CC[N+](C)(C)CC(=O)c1ccccc1.[Br-]`, the kinetic solubility was over 44.4 µg/mL.

As to `O=C1NC(=O)/C(=C\c2ccc(OCc3ccccc3)cc2)S1`, the solubility (kinetic) is under 0.7 µg/mL.

On to `Nc1cccc(NC(=O)CN2CCOCC2)c1`, for which the solubility (kinetic) was over 35.3 µg/mL.

In turn, `CCOC(=O)c1cc(C#N)c(Nc2ccc(C)cc2)nc1C(F)(F)F` yielded a kinetic solubility of under 0.2 µg/mL.

The compound `COc1cc2c(cc1OC)C(C)N(S(=O)(=O)c1cn(C)c(C)n1)CC2` (configuration not stated) had a kinetic solubility of over 54.8 µg/mL.

`Cc1[nH]c2ccccc2c1C(=O)C(=O)NC1CC1` had a kinetic solubility of over 36.3 µg/mL.

In turn, `CC(C)CNC(=O)C(=O)Nc1cc2c3c(c1)CCC(=O)N3CCC2` gave a kinetic solubility of 5 µg/mL (≈ 15.2 µM).

The compound `Cc1ccc(OCCn2cnc3c2c(=O)n(C)c(=O)n3C)cc1` displayed a solubility (kinetic) of 6.3 µg/mL (≈ 20 µM). The solubility kinetic values of the last two compounds are within 1.5-fold of each other.

Consider `Cc1cccc(N2CCN(C(=O)[C@H](C)N3C(=O)C4CC=CCC4C3=O)CC2)c1C` (some centres not stated), for which the kinetic solubility is over 59.3 µg/mL.

`CSc1ccccc1NC(=O)CCn1c(=O)oc2ccccc21`: the solubility (kinetic) was over 49.3 µg/mL.

`O=C(Nc1ccc(NC(=O)c2ccccc2Cl)cc1)c1cccnc1` came in with a solubility (kinetic) of 3 µg/mL (≈ 8.53 µM).

Take `COc1ccc(C(=O)NC2CCSc3ccccc32)cc1` (configuration not stated): the kinetic solubility turned out to be 6.3 µg/mL (≈ 21 µM).

`CCN1C(=O)CSC1=Nc1ccc(Cl)c(Cl)c1` showed a kinetic solubility of 9.8 µg/mL (≈ 33.9 µM).

The compound `CN(Cc1ccc(F)cc1)C(=O)c1sccc1-c1ccccc1` registered a kinetic solubility of 21.4 µg/mL (≈ 65.8 µM).

The compound `CCNC(=O)CC1SC(=Nc2ccc(C)c([N+](=O)[O-])c2)N(C)C1=O` (configuration not stated) gave a kinetic solubility of over 52.6 µg/mL.

On to `CCCCc1c(C)nc2c(OC)cccc2c1SCC(=O)O`, for which the kinetic solubility is over 47.9 µg/mL.

`Cc1ccc(C(=O)CCC(=O)NC2CCCC(C)C2C)cc1` (configuration not stated) displayed a solubility (kinetic) of 17.4 µg/mL (≈ 57.7 µM).

Compound `CCC(COC(C)=O)Nc1nc2c([nH]1)c(=O)n(C)c(=O)n2C` (configuration not stated) yielded a kinetic solubility of over 46.4 µg/mL.

`O=C(OCc1cncs1)c1ccccc1Cl` yielded a solubility (kinetic) of over 38.1 µg/mL.

`Cc1ccc(C(C[N+](=O)[O-])Sc2ccc(N)cc2)cc1` (configuration not stated) displayed a solubility (kinetic) of 21.4 µg/mL (≈ 74.2 µM).

`COc1ccc2[nH]cc(CCNCc3cccnc3)c2c1.Cl`: the solubility (kinetic) was determined as 46.2 µg/mL.

Consider `CC(CN(C)C)CN1c2ccccc2CCc2ccccc21.O=C(O)/C=C\C(=O)O` (configuration not stated), for which the solubility (kinetic) was over 61.6 µg/mL.

In the case of `COc1ccccc1CC(=O)N1CCN(CCc2ccccc2)CC1`, the solubility (kinetic) is over 50.8 µg/mL.

Turning to `COc1cc(C)ccc1OC(C)C(=O)Nc1ccc(N2CCCCC2)cc1` (configuration not stated), the kinetic solubility worked out at 2.7 µg/mL (≈ 7.33 µM).

Take `O=C(CNC(=O)c1ccc(OC(F)F)cc1)NCC1CCCO1` (configuration not stated): the kinetic solubility was over 49.2 µg/mL.

Turning to `Cc1ccc(/C=C(\NC(=O)c2ccccc2)C(=O)N2CCCCC2)cc1`, the kinetic solubility was found to be 39.9 µg/mL (≈ 115 µM).

`Cc1ccc(Cl)c(Nc2ccccc2C(=O)[O-])c1Cl.[Na+]`: the solubility (kinetic) was over 47.7 µg/mL.

As to `CN(C)CCCN=Cc1c(O)n(Cc2ccco2)c(=O)[nH]c1=O`, the solubility (kinetic) stood at 36.4 µg/mL (≈ 114 µM).

Compound `CCOc1ccc2ccccc2c1C1NC(=O)N(C)C(C)=C1C(=O)OCCOC` (configuration not stated) had a solubility (kinetic) of 1.9 µg/mL (≈ 4.77 µM).

With `O=C(Nc1ccccc1F)C1COc2ccccc2O1` (configuration not stated), the kinetic solubility came to 25.6 µg/mL (≈ 93.7 µM).

`O=C(O)c1ccccc1Nc1ccc([N+](=O)[O-])cc1C(=O)O` had a kinetic solubility of over 45.3 µg/mL.

Consider `COc1ccc(Cl)cc1NC(=O)CN(C)Cc1cccs1`, for which the kinetic solubility came to 3 µg/mL (≈ 9.24 µM).

Regarding `Cc1ccc(NC(=O)COC(=O)c2ccc[n+]([O-])c2)c(Br)c1`, the solubility (kinetic) is over 54.8 µg/mL.

Take `Cc1cc(C)c(S(=O)(=O)Nc2ccc(Cl)cn2)c(C)c1`: the kinetic solubility stood at 1.8 µg/mL (≈ 5.79 µM).

Compound `Cc1nc(NC(=O)COC(=O)c2ccc(CO)cc2)c(Cl)cc1Cl` displayed a kinetic solubility of 21.9 µg/mL (≈ 59.3 µM).

Compound `Cc1ccc(C(=O)Nc2cccc3cccnc23)cc1Br` had a kinetic solubility of under 0.4 µg/mL.

In turn, `c1ccc2c(c1)Sc1ccccc1N2CC1CN2CCC1CC2` (configuration not stated) showed a solubility (kinetic) of over 48.4 µg/mL.

`COc1ccccc1NC(=O)Cn1c([N+](=O)[O-])cnc1C`: the kinetic solubility is over 43.5 µg/mL.

In the case of `Cl.OC(CNC1CCCC1)COc1ccc(F)cc1` (configuration not stated), the solubility (kinetic) amounted to 36.6 µg/mL.

Compound `CCOc1ccc(CN(C)C(=O)Cc2c[nH]c3ccccc23)cc1` came in with a solubility (kinetic) of 42 µg/mL (≈ 130 µM).

On to `Cc1ccc(OCCNC(=O)CNC(=O)c2ccc(C)cc2)cc1`, for which the solubility (kinetic) is 6.8 µg/mL (≈ 20.8 µM).

Turning to `Cc1c(CNCCc2ccccc2)c(C(=O)O)c(C)n1-c1ccccc1`, the solubility (kinetic) is over 52.3 µg/mL.

The compound `Cc1cnc(NC(=O)Cc2ccccc2F)s1` yielded a kinetic solubility of 3.4 µg/mL (≈ 13.6 µM).

`Cc1ccnc(NCc2cccc3ccccc23)c1.Cl` yielded a solubility (kinetic) of 15.8 µg/mL.

`COc1ccc(C(=O)CNc2ccc(C)cc2C)cc1`: the solubility (kinetic) is 5.8 µg/mL (≈ 21.5 µM).

As for `CN(C(=O)c1ccc(N2CCOCC2)c([N+](=O)[O-])c1)C1CCCCC1`, the kinetic solubility is over 52.1 µg/mL.

The compound `CCCn1c2ccccc2c2cnn(CC(=O)NCCOC)c(=O)c21` displayed a solubility (kinetic) of over 51.4 µg/mL.

Take `CSc1cccc(N2CC(C(=O)N3CCN(S(=O)(=O)c4ccccc4Cl)CC3)CC2=O)c1` (configuration not stated): the kinetic solubility amounted to 23.2 µg/mL (≈ 47 µM).
